From the NIST ThermoML archive (doi:10.1016/j.jct.2005.03.019)
Numbers after ± are expanded uncertainties.

Test: xn = mol fraction of the nth substance listed
Conditions: 101 kPa, Liquid, Vibrating tube method

CC1COC(=O)O1 (configuration not stated) [4-methyl-1,3-dioxolan-2-one] + CCc1ccccc1
Conditions	mass density [kg/m3]
293.15 K, x2 = 0	1200.3 ± 0.1
293.15 K, x2 = 0.0592	1173.5 ± 0.1
293.15 K, x2 = 0.1139	1149.9 ± 0.1
293.15 K, x2 = 0.1749	1124.6 ± 0.1
293.15 K, x2 = 0.2471	1096.1 ± 0.2
293.15 K, x2 = 0.3274	1066.1 ± 0.2
293.15 K, x2 = 0.3856	1045.5 ± 0.2
293.15 K, x2 = 0.4527	1022.7 ± 0.2
293.15 K, x2 = 0.5049	1005.6 ± 0.2
293.15 K, x2 = 0.5672	986.1 ± 0.2
293.15 K, x2 = 0.6368	965.1 ± 0.2
293.15 K, x2 = 0.6978	947.4 ± 0.2
293.15 K, x2 = 0.7529	932 ± 0.2
293.15 K, x2 = 0.8149	915.2 ± 0.2
293.15 K, x2 = 0.8742	899.6 ± 0.2
293.15 K, x2 = 0.9368	883.5 ± 0.2
303.15 K, x2 = 0	1180.6 ± 0.1
303.15 K, x2 = 0.0489	1159.1 ± 0.1
303.15 K, x2 = 0.1278	1126.2 ± 0.1
303.15 K, x2 = 0.1974	1098.6 ± 0.1
303.15 K, x2 = 0.2484	1079.4 ± 0.2
303.15 K, x2 = 0.3149	1055.2 ± 0.2
303.15 K, x2 = 0.3759	1034.1 ± 0.2
303.15 K, x2 = 0.4349	1014.5 ± 0.2
303.15 K, x2 = 0.4876	997.7 ± 0.2
303.15 K, x2 = 0.5498	978.5 ± 0.2
303.15 K, x2 = 0.5922	965.9 ± 0.2
303.15 K, x2 = 0.659	946.7 ± 0.2
303.15 K, x2 = 0.7249	928.4 ± 0.2
303.15 K, x2 = 0.7941	910 ± 0.2
303.15 K, x2 = 0.8578	893.5 ± 0.2
303.15 K, x2 = 0.9247	876.8 ± 0.2
313.15 K, x2 = 0	1161.3 ± 0.1
313.15 K, x2 = 0.0662	1133.7 ± 0.1
313.15 K, x2 = 0.1258	1110 ± 0.1
313.15 K, x2 = 0.1835	1088 ± 0.1
313.15 K, x2 = 0.2458	1065.3 ± 0.1
313.15 K, x2 = 0.3342	1034.7 ± 0.2
313.15 K, x2 = 0.3958	1014.5 ± 0.2
313.15 K, x2 = 0.4592	994.6 ± 0.2
313.15 K, x2 = 0.5135	978.2 ± 0.2
313.15 K, x2 = 0.5629	963.7 ± 0.2
313.15 K, x2 = 0.6248	946.2 ± 0.2
313.15 K, x2 = 0.6724	933.2 ± 0.2
313.15 K, x2 = 0.7383	915.7 ± 0.2
313.15 K, x2 = 0.7873	903.2 ± 0.2
313.15 K, x2 = 0.8534	886.7 ± 0.2
313.15 K, x2 = 0.9378	866.4 ± 0.2
323.15 K, x2 = 0	1142.4 ± 0.1
323.15 K, x2 = 0.0635	1117.4 ± 0.1
323.15 K, x2 = 0.1139	1098.3 ± 0.1
323.15 K, x2 = 0.1729	1076.8 ± 0.1
323.15 K, x2 = 0.2384	1054 ± 0.1
323.15 K, x2 = 0.3248	1025.4 ± 0.1
323.15 K, x2 = 0.3859	1006.2 ± 0.2
323.15 K, x2 = 0.4523	986.2 ± 0.2
323.15 K, x2 = 0.5048	971 ± 0.2
323.15 K, x2 = 0.5733	951.9 ± 0.2
323.15 K, x2 = 0.6387	934.4 ± 0.2
323.15 K, x2 = 0.7038	917.6 ± 0.2
323.15 K, x2 = 0.7587	903.8 ± 0.2
323.15 K, x2 = 0.8137	890.5 ± 0.2
323.15 K, x2 = 0.8698	877.2 ± 0.2
323.15 K, x2 = 0.9247	864.5 ± 0.2
333.15 K, x2 = 0	1124 ± 0.1
333.15 K, x2 = 0.0587	1102.4 ± 0.1
333.15 K, x2 = 0.1328	1076.2 ± 0.1
333.15 K, x2 = 0.1849	1058.6 ± 0.1
333.15 K, x2 = 0.2489	1037.9 ± 0.1
333.15 K, x2 = 0.3186	1016.2 ± 0.1
333.15 K, x2 = 0.3767	998.9 ± 0.1
333.15 K, x2 = 0.435	982.2 ± 0.2
333.15 K, x2 = 0.4957	965.5 ± 0.2
333.15 K, x2 = 0.5549	949.7 ± 0.2
333.15 K, x2 = 0.6247	931.8 ± 0.2
333.15 K, x2 = 0.6978	913.8 ± 0.2
333.15 K, x2 = 0.7629	898.4 ± 0.2
333.15 K, x2 = 0.8247	884.2 ± 0.2
333.15 K, x2 = 0.8624	875.7 ± 0.2
333.15 K, x2 = 0.9358	859.5 ± 0.2
343.15 K, x2 = 0	1106 ± 0.1
343.15 K, x2 = 0.0524	1088.2 ± 0.1
343.15 K, x2 = 0.1125	1068.5 ± 0.1
343.15 K, x2 = 0.1828	1046.3 ± 0.1
343.15 K, x2 = 0.2398	1029.1 ± 0.1
343.15 K, x2 = 0.3049	1010.2 ± 0.1
343.15 K, x2 = 0.3673	992.8 ± 0.1
343.15 K, x2 = 0.4348	974.7 ± 0.2
343.15 K, x2 = 0.4817	962.6 ± 0.2
343.15 K, x2 = 0.5428	947.3 ± 0.2
343.15 K, x2 = 0.6048	932.3 ± 0.2
343.15 K, x2 = 0.6721	916.5 ± 0.2
343.15 K, x2 = 0.7498	899 ± 0.2
343.15 K, x2 = 0.8247	882.7 ± 0.2
343.15 K, x2 = 0.8827	870.5 ± 0.2
343.15 K, x2 = 0.9478	857 ± 0.2
353.15 K, x2 = 0	1088.4 ± 0.1
353.15 K, x2 = 0.0629	1069.2 ± 0.1
353.15 K, x2 = 0.1272	1050.2 ± 0.1
353.15 K, x2 = 0.1947	1031 ± 0.1
353.15 K, x2 = 0.2598	1013.3 ± 0.1
353.15 K, x2 = 0.3138	999 ± 0.1
353.15 K, x2 = 0.3945	978.6 ± 0.1
353.15 K, x2 = 0.4629	962 ± 0.2
353.15 K, x2 = 0.5148	949.8 ± 0.2
353.15 K, x2 = 0.5749	936.1 ± 0.2
353.15 K, x2 = 0.6345	923 ± 0.2
353.15 K, x2 = 0.7039	908.2 ± 0.2
353.15 K, x2 = 0.7635	895.8 ± 0.2
353.15 K, x2 = 0.8137	885.7 ± 0.2
353.15 K, x2 = 0.8642	875.7 ± 0.2
353.15 K, x2 = 0.9248	863.9 ± 0.2
